In patent US20200316087A1, “NOVEL COMBINATION THERAPY FOR ANXIETY DISORDERS, EPILEPSY, AND PAIN” (priority 2017, published 2020):

Columns and labels:
PTZ seizure threshold = experiment: Pentylenetetrazole (PTZ, i.v.)-induced seizure threshold; format: in vivo, rats; details: for PTZ Threshold to Criteria: MED for producing ≥2× PTZ seizure threshold at baseline; for PTZ Threshold Poteny (MED): lowest dose with statistically significant effect, PTZ i.v.; for PTZ Threshold Poteny (MED) / effect on dose of PTZ required to induce convulsions: rats; for effect on dose of PTZ required to induce convulsions: PTZ i.v. infusion, pretreatment 30 min
Procedure: Male […] Sprague-Dawley rats (Indianapolis, Ind.) were randomly assigned to treatment groups and dosed with vehicle (vehicle=1% carboxymethyl cellulose) with diazepam (0.1, 0.3, or 1 mg/kg) or test compound (3, 10, 30, or 60 mg/kg) 30 minutes prior to testing. Rats were placed in a restrainer and a winged infusion needle was inserted into the lateral tail vein. Intravenous infusion with 10 mg/ml PTZ at a rate of 0.5 ml/min was initiated until a clonic convulsion occurred, and the time to clonic convulsion was recorded in sec or a maximum of 4 min was recorded. Following infusion, rats are euthanized. The dose of PTZ required to elicit a clonic convulsion was calculated using the infusion rate, concentration of PTZ, time to clonic convulsion, and animal weight.

[1] = Rat inverted screen test (motor impairment); details: male, Sprague-Dawley, rat, in vivo
From the text: (§1) The motor effects of Diazepam and KRM-II-81 were studied on the inverted screen. The inverted screen test is used to measure whether or not a test compound induces muscle relaxation. When a test subject is placed on a wire screen which is then inverted, the reaction is to climb to the opposite side so they are no longer hanging upside down.
(§2) Male, Sprague Dawley rats (Harlan Sprague Dawley, Indianapolis, Ind.) were used and weighed 90-110 g when evaluated in experiments. […] Rats were placed onto the top of a wire screen, which was then inverted so that the rats were hanging upside down.
(§3) Male Sprague-Dawley rats (n=5) were dosed i.p. (vehicle=1% carboxymethyl cellulose) with diazepam (3, 10, or 30 mg/kg), KRM-II-81 (10, 30, or 60 mg/kg) or HZ-166 (30 mg/kg) 30 minutes prior to testing. Rats were placed onto the top of a wire screen, which was then inverted so that the rats were hanging upside down. […] Results were analyzed using ANOVA (Dunnett's test: *P<0.05).
(§4) For the in vivo assays, minimal effective doses (MED) were calculated in mg/kg. MED was defined as the lowest dose administered that produced statistically significant protection compared to vehicle control in the anticonvulsant assays. The MED, or minimal toxic dose (MTD) for motor impairment, was the minimal dose required to produce statistically-significant impairment in motor performance. Doses tested are shown in the figures and tables and are generally dosed in ½ log increments. The protective index (PT) was calculated at the MTD/MED.

[2] = test system: motor performance on an inverted screen; experiment: Rat inverted screen test (motor impairment); details: rats
From the text: as §1, §2, §3, §4

[3] = test system: electroshock-induced seizures; experiment: Mouse electroshock-induced seizure model; format: in vivo; details: mice; for Electroshock to Criteria: MED producing maximal protection (0% seizures); for Electroshock (minimal effective dose, MED): lowest dose with statistically significant protection vs vehicle
Procedure: This assay detects effects of compounds that produce generalized seizures and those that dampen seizure spread. Male, CD1 mice (Taconic Farms) were studied at weights of 21-32 g. Mice=10/dose) were used with Wahlquist Model H stimulator with 0.2 sec stimulation with corneal electrodes. […] Mice were euthanized immediately following the test. Tonic extension was used as the primary endpoint.
as §4

[4] = test system: immobility in forced-swim test; experiment: Forced-swim assay; format: in vivo, mice; details: male NIH Swiss mice, i.p., 30 min prior
Procedure: Male NIH Swiss mice (Envigo, Indianapolis, Ind.) were studied. Mice were placed in clear plastic cylinders (diameter: 10 cm; height: 25 cm) filled with 6 cm of water (22-25° C.) for six min. […] The duration of immobility during the last four min of the six min test period was scored. A mouse was recorded as immobile when floating motionless or making only those movements necessary to keep its head above water.

PTZ-induced clonus = experiment: Pentylenetetrazole (PTZ, 35 mg/kg s.c.)-induced clonic convulsions; format: in vivo; details: rats; for PTZ Clonus to Criteria 1: MED producing maximal protection (0% seizures); for PTZ Clonus Potency (MED): lowest dose with statistically significant protection; for PTZ Clonus Potency (MED) / protection against PTZ-induced clonus: PTZ 35 mg/kg s.c.
Procedure: After the inverted screen test, the rats were dosed with pentylenetetrazole (PTZ)(35 mg/kg, s.c.) in a volume of 1 ml/kg and placed in an observation cage (40.6×20.3×15.2 cm) with a floor containing […] of wood chip bedding material. PTZ dose was determined to be ˜EC97 for producing clonic convulsions.

Compound	PTZ Threshold to Criteria (PTZ seizure threshold) [mg/kg]	PTZ Threshold Poteny (MED) (PTZ seizure threshold) [mg/kg]	effect on dose of PTZ required to induce convulsions (PTZ seizure threshold)	MTD at 60 seconds ([1]; intraperitoneal) [mg/kg]	effect on motor performance ([2]; up to 30 mg/kg, inverted screen)	Electroshock to Criteria [3] [mg/kg]	Electroshock (minimal effective dose, MED) [3] [mg/kg]	protection against electroshock-induced seizures [3]	immobility in forced-swim assay [4]	PTZ Clonus to Criteria 1 (PTZ-induced clonus) [mg/kg]	PTZ Clonus Potency (MED) (PTZ-induced clonus) [mg/kg]	protection against PTZ-induced clonus (PTZ-induced clonus)	dose of PTZ required to induce convulsions (PTZ seizure threshold; pretreated with 10 mg/kg of KRM-II-81, vehicle baseline 35.1±1.2 mg/kg) [mg/kg]	ED50 at 30 min ([1]; ip) [mg/kg]	muscle relaxation on inverted screen (result in words) ([2]; i.p., 30 min prior, KRM-II-81 10-60 mg/kg, HZ-166 30 mg/kg)	dose at which signs of muscle relaxation began to appear ([2]; i.p., inverted screen) [mg/kg]
C#Cc1ccc2c(c1)C(c1ccccc1)=NCc1c(-c3cnco3)ncn1-2 [KRM-II-82, 5-(8-ethynyl-6-phenyl-4H-benzo[f]imidazo[1,5-a][1,4]diazepin-3-yl)oxazole]	30	10	increased the dose of PTZ required to induce convulsions	150	without significant effect on motor performance	30	30	fully prevented	significantly decreased immobility time	30	10	dose-dependently suppressed				
C#Cc1ccc2c(c1)C(c1ccccn1)=NCc1c(-c3cnco3)ncn1-2 [KRM-II-81, 5-(8-ethynyl-6-(pyridin-2-yl)-4H-benzo[f]imidazo[1,5-a][1,4]diazepin-3-yl)oxazole]	30	10	increased the dose of PTZ required to induce convulsions			30	10	fully prevented	moderate, dose-dependent decrease in immobility	30	30	fully prevented	71	121	Neither HZ-166 nor KRM-II-81 induced significant muscle relaxation	60
